What all share (assay type): cell-based
For assay [1], the system named is phosphorylation of AKT (pAKT) in T47D cells expressing mutant PI3Ka (H1047R). Nature of the assay: In vitro cell pAKT (Ser473) HTRF, T47D cells. As to conditions: cellular pAKT, T47D cells, mutant PI3Ka (H1047R), 6 hours, read-out: Avg T-47D IC50. The method, boiled down:
(§1)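 T47D cells (RPMI, 10% FBS, 0.2 units/mL insulin) or SKBR3 cells (McCoy's 5a, 10% FBS) were seeded onto 10-point compound dilutions and incubated 6 h at 37 °C. After lysis, pAKT was detected overnight by HTRF (Eu cryptate/d2). IC50 was fitted from % inhibition relative to 0.1% DMSO and 10 uM alpelisib controls.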
Background: TR-FRET usually uses a lanthanide donor and a delayed reading to cut background.

The subject of assay [2] is phosphorylation of AKT (pAKT) in SKBR3 cells express WT PI3Ka. Briefly: In vitro cell pAKT (Ser473) HTRF, SKBR3 cells. As to conditions: cellular pAKT. The method, boiled down: as §1
Assay [3] deals with T47D cells expressing mutant PI3Ka (H1047R). Briefly: In vitro cell proliferation, T47D cells (CellTiter-Glo). As to conditions: inhibition of proliferation, read-out: Avg T-47D EC50. In a few lines:
(§2)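 1,500 cells/well seeded onto pre-stamped 10-pt dilution plates; T47D in RPMI + 10% FBS + insulin 0.2 units/mL, SKBR3 in McCoys 5a + 10% FBS. 72 h, 37 °C, 5% CO2. CTG readout. 0% = 0.1% DMSO, 100% = 10 uM Alpelisib; sigmoidal fit gives EC50.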

For assay [4], the system named is SKBR3 cells express WT PI3Ka. Nature of the assay: In vitro cell proliferation, SKBR3 cells (CellTiter-Glo). The note with it: inhibition of proliferation. In a few lines: as §2
Background: In ATP-based viability assays light output follows the ATP content of the culture.

Like-named read-outs stand apart in the source and are kept apart here.

By IC50 is commonly meant the point on the concentration scale where inhibition reaches its midpoint. The EC50 is the midpoint of the concentration-response curve.

Regarding `Cc1cc([C@@H](C)Nc2ccccc2C(=O)O)c2cc(C3C[C@H]3C(C)C)n(C)c(=O)c2c1` (single isomer, unassigned) [Example 312], the results for the IC50 in assay [1] and in assay [2] (6 hours) were 0.001 to 0.5 µM and over 15 µM, respectively. For the same compound, the EC50 in assay [3] (72 hours) was 0.001 to 0.5 µM; in assay [4] (72 hours), 2 to 15 µM.
With `Cc1cc([C@@H](C)Nc2ccccc2C(=O)O)c2cc(C3C[C@H]3C)n(C)c(=O)c2c1` (single isomer, unassigned) [Example 313], the IC50 in assay [1] is 0.001 to 0.5 µM; in assay [2] (6 hours), over 15 µM. The values for the EC50 in assay [3] (72 hours) and in assay [4] (72 hours) were 0.001 to 0.5 µM and over 15 µM, respectively.
Turning to `COC[C@@H]1CC1c1cc2c([C@@H](C)Nc3ccccc3C(=O)O)cc(C)cc2c(=O)n1C` (single isomer, unassigned) [Example 314], the IC50 is 0.001 to 0.5 µM in assay [1] and over 15 µM in assay [2] (6 hours). The EC50 is 0.001 to 0.5 µM in assay [3] (72 hours) and over 15 µM in assay [4] (72 hours).
As to `Cc1cc([C@@H](C)Nc2ccccc2C(=O)O)c2cc(C3C[C@H]3C3CC3)n(C)c(=O)c2c1` (single isomer, unassigned) [Example 315], the concentration for half-maximal inhibition (IC50) in assay [1] was 0.001 to 0.5 µM; in assay [2] (6 hours), over 15 µM. In addition, the EC50 in assay [3] (72 hours) was 0.001 to 0.5 µM; in assay [4] (72 hours), over 15 µM.
For the compound `Cc1cc([C@@H](C)Nc2cccc(F)c2C(=O)O)c2cc(C3C[C@H]3C)n(C)c(=O)c2c1` (single isomer, unassigned) [Example 355], the IC50 in assay [1] (Homo sapiens, T47D, 6 h) was 0.001 to 0.5 µM; in assay [2] (Homo sapiens, SK-BR-3, 6 h) it was over 15 µM. Moreover, the EC50 was 0.001 to 0.5 µM in assay [3] (Homo sapiens, T47D, 72 h) and over 15 µM in assay [4] (Homo sapiens, SK-BR-3, 72 h).
Turning to `Cc1cc([C@@H](C)Nc2cccc(F)c2C(=O)O)c2cc(C3C[C@H]3C)n(C)c(=O)c2c1` (single isomer, unassigned) [Example 356], the IC50 was 0.001 to 0.5 µM in assay [1] and over 15 µM in assay [2] (6 hours). Further, the values for the EC50 in assay [3] (72 hours) and in assay [4] (72 hours) were 0.001 to 0.5 µM and over 15 µM, respectively.
In the case of `Cc1cc(C(C)Nc2ccccc2C(=O)O)c2c(F)c(C3=CCN(CC(F)(F)F)CC3)n(C)c(=O)c2c1` (single isomer, unassigned) [Example 359], the IC50 was 0.001 to 0.5 µM in assay [1] and over 15 µM in assay [2] (6 hours). The EC50 was 0.001 to 0.5 µM in assay [3] (72 hours) and over 15 µM in assay [4] (72 hours).
Regarding `Cc1cc(C(C)Nc2ccccc2C(=O)O)c2c(F)c(C3=CCN(CC(F)(F)F)CC3)n(C)c(=O)c2c1` (single isomer, unassigned) [Example 360], the IC50 in assay [1] and in assay [2] (6 hours) was over 15 µM throughout. For the same compound, the EC50 in assay [3] (72 hours) is 2 to 15 µM; in assay [4] (72 hours), over 15 µM.
Turning to `Cc1cc([C@@H](C)Nc2ccccc2C(=O)O)c2cc([C@H]3C[C@@H]3C(C)(C)O)n(C)c(=O)c2c1` (single isomer, unassigned) [Example 373], the IC50 in assay [1] (Homo sapiens, T47D, 6 h) was 0.001 to 0.5 µM; in assay [2] (Homo sapiens, SK-BR-3, 6 h), over 15 µM. The EC50 is 0.001 to 0.5 µM in assay [3] (Homo sapiens, T47D, 72 h) and over 15 µM in assay [4] (Homo sapiens, SK-BR-3, 72 h).
Regarding `Cc1cc([C@@H](C)Nc2ccccc2C(=O)O)c2cc([C@H]3C[C@@H]3C(C)(C)O)n(C)c(=O)c2c1` (single isomer, unassigned) [Example 374], the 50% inhibitory concentration (IC50) in assay [1] was 0.001 to 0.5 µM; in assay [2] (6 hours), over 15 µM. The EC50 is 0.001 to 0.5 µM in assay [3] (72 hours) and over 15 µM in assay [4] (72 hours).
`Cc1cc([C@@H](C)Nc2ccccc2C(=O)O)c2cc(C3CC3(F)F)n(C)c(=O)c2c1` (single isomer, unassigned) [Example 384]: the IC50 in assay [1] (Homo sapiens, T47D, 6 h) is 0.001 to 0.5 µM; in assay [2] (Homo sapiens, SK-BR-3, 6 h), over 15 µM. Besides, the EC50 in assay [3] (Homo sapiens, T47D, 72 h) was 0.001 to 0.5 µM; in assay [4] (Homo sapiens, SK-BR-3, 72 h), over 15 µM.
Turning to `Cc1cc([C@@H](C)Nc2ccccc2C(=O)O)c2cc(C3CC3(F)F)n(C)c(=O)c2c1` (single isomer, unassigned) [Example 385], the 50% inhibitory concentration (IC50) in assay [1] is 0.001 to 0.5 µM; in assay [2] (6 hours) it was over 15 µM. Also, the EC50 is 0.001 to 0.5 µM in assay [3] (72 hours) and over 15 µM in assay [4] (72 hours).
With `Cc1cc([C@@H](C)Nc2cccc(F)c2C(=O)O)c2cc(C3CC3(F)F)n(C)c(=O)c2c1` (single isomer, unassigned) [Example 420], the IC50 in assay [1] was 2 to 15 µM; in assay [2] (Homo sapiens, SK-BR-3, 6 h), over 15 µM. In addition, the EC50 in assay [3] (72 hours) is 2 to 15 µM; in assay [4] (Homo sapiens, SK-BR-3, 72 h), over 15 µM.
Regarding `Cc1cc([C@@H](C)Nc2cccc(F)c2C(=O)O)c2cc(C3CC3(F)F)n(C)c(=O)c2c1` (single isomer, unassigned) [Example 421], the IC50 in assay [1] is 0.001 to 0.5 µM; in assay [2] (6 hours), over 15 µM. The EC50 in assay [3] (72 hours) is 0.5 to 2 µM; in assay [4] (72 hours), over 15 µM.
In the case of `C[C@@H](Nc1cccc(F)c1C(=O)O)c1cc(F)cc2c(=O)n(C)c(C3C[C@@H]3C3CC3)cc12` (single isomer, unassigned) [Example 425], the IC50 in assay [1] (Homo sapiens, T47D, 6 h) was 0.001 to 0.5 µM; in assay [2] (Homo sapiens, SK-BR-3, 6 h), over 15 µM. Further, the EC50 is 0.5 to 2 µM in assay [3] (72 hours) and over 15 µM in assay [4] (Homo sapiens, SK-BR-3, 72 h).
Consider `C[C@@H](Nc1cccc(F)c1C(=O)O)c1cc(F)cc2c(=O)n(C)c(C3C[C@@H]3C3CC3)cc12` (single isomer, unassigned) [Example 426], for which the IC50 is 0.001 to 0.5 µM in assay [1] and over 15 µM in assay [2] (6 hours). For the same compound, the EC50 was 0.001 to 0.5 µM in assay [3] (72 hours) and over 15 µM in assay [4] (72 hours).
As for `C[C@@H](Nc1cccc(F)c1C(=O)O)c1cc(F)cc2c(=O)n(C)c(C3C[C@@H]3C(F)(F)F)cc12` (single isomer, unassigned) [Example 427], the IC50 in assay [1] (Homo sapiens, T47D, 6 h) was 0.001 to 0.5 µM; in assay [2] (Homo sapiens, SK-BR-3, 6 h), over 15 µM. For the same compound, the concentration giving a half-maximal response (EC50) in assay [3] (Homo sapiens, T47D, 72 h) is 0.5 to 2 µM; in assay [4] (Homo sapiens, SK-BR-3, 72 h) it was over 15 µM.
In the case of `C[C@@H](Nc1cccc(F)c1C(=O)O)c1cc(F)cc2c(=O)n(C)c(C3C[C@@H]3C(F)(F)F)cc12` (single isomer, unassigned) [Example 428], the values for the concentration for half-maximal inhibition (IC50) in assay [1] and in assay [2] (6 hours) were 0.001 to 0.5 µM and over 15 µM, respectively. Moreover, the EC50 was 0.5 to 2 µM in assay [3] (72 hours) and over 15 µM in assay [4] (72 hours).
With `C[C@@H](Nc1ccccc1C(=O)O)c1cc(F)cc2c(=O)n(C)c(C3C[C@@H]3C3CC3)cc12` (single isomer, unassigned) [Example 449], the IC50 in assay [1] (Homo sapiens, T47D, 6 h) was 0.001 to 0.5 µM; in assay [2] (Homo sapiens, SK-BR-3, 6 h) it was over 15 µM. Besides, the EC50 in assay [3] (Homo sapiens, T47D, 72 h) was 0.001 to 0.5 µM; in assay [4] (Homo sapiens, SK-BR-3, 72 h), over 15 µM.
Consider `C[C@@H](Nc1ccccc1C(=O)O)c1cc(F)cc2c(=O)n(C)c(C3C[C@@H]3C3CC3)cc12` (single isomer, unassigned) [Example 450], for which the IC50 in assay [1] is 0.001 to 0.5 µM; in assay [2] (6 hours), over 15 µM. In addition, the EC50 is 0.001 to 0.5 µM in assay [3] (72 hours) and over 15 µM in assay [4] (72 hours).
In the case of `C[C@@H](Nc1ccccc1C(=O)O)c1cc(F)cc2c(=O)n(C)c(C3C[C@@H]3C(F)(F)F)cc12` (single isomer, unassigned) [Example 451], the IC50 was 0.001 to 0.5 µM in assay [1] (Homo sapiens, T47D, 6 h) and over 15 µM in assay [2] (Homo sapiens, SK-BR-3, 6 h). The EC50 in assay [3] (Homo sapiens, T47D, 72 h) was 0.001 to 0.5 µM; in assay [4] (Homo sapiens, SK-BR-3, 72 h), over 15 µM.
As to `C[C@@H](Nc1ccccc1C(=O)O)c1cc(F)cc2c(=O)n(C)c(C3C[C@@H]3C(F)(F)F)cc12` (single isomer, unassigned) [Example 452], the IC50 in assay [1] was 0.001 to 0.5 µM; in assay [2] (6 hours), over 15 µM. In addition, the concentration for a half-maximal effect (EC50) in assay [3] (72 hours) was 0.001 to 0.5 µM; in assay [4] (72 hours), over 15 µM.
For `C[C@@H](Nc1cccc(F)c1C(=O)O)c1cc(F)cc2c(=O)n(C)c(C3C[C@@H]3C(F)F)cc12` (single isomer, unassigned) [Example 475], the IC50 was 0.001 to 0.5 µM in assay [1] (Homo sapiens, T47D, 6 h) and over 15 µM in assay [2] (Homo sapiens, SK-BR-3, 6 h). The EC50 in assay [3] (Homo sapiens, T47D, 72 h) was 0.5 to 2 µM; in assay [4] (Homo sapiens, SK-BR-3, 72 h) it was over 15 µM.

These data come from patent US20260078103A1, “ISOQUINOLONES AS PI3K INHIBITORS” (OnKure, Inc., priority 2022, published 2026).
